The values below come from US20240050435A1, “METHODS FOR TREATING CANCER” (Washington University, priority 2022, published 2024).

The target of one assay is ATR (Homo sapiens, UniProt Q13535). The note with it: cited from earlier work.
For assay [1], the system named is TP53-mutant hematopoietic stem cells (HSCs). Nature of the assay: Mixed bone marrow chimeras (wildtype and R172H TP53 bone marrow). The class given is in vivo. Conditions: mice with mixed wildtype / R172H TP53 bone marrow chimeras. An excerpt: To assess the impact of combination treatment on TP53-mutant hematopoietic stem cells (HSCs), mixed bone marrow chimeras transplanted with both wildtype and R172H TP53 bone marrow were established as illustrated in FIG. 13.

ATR, sequence (Q13535 whole entry): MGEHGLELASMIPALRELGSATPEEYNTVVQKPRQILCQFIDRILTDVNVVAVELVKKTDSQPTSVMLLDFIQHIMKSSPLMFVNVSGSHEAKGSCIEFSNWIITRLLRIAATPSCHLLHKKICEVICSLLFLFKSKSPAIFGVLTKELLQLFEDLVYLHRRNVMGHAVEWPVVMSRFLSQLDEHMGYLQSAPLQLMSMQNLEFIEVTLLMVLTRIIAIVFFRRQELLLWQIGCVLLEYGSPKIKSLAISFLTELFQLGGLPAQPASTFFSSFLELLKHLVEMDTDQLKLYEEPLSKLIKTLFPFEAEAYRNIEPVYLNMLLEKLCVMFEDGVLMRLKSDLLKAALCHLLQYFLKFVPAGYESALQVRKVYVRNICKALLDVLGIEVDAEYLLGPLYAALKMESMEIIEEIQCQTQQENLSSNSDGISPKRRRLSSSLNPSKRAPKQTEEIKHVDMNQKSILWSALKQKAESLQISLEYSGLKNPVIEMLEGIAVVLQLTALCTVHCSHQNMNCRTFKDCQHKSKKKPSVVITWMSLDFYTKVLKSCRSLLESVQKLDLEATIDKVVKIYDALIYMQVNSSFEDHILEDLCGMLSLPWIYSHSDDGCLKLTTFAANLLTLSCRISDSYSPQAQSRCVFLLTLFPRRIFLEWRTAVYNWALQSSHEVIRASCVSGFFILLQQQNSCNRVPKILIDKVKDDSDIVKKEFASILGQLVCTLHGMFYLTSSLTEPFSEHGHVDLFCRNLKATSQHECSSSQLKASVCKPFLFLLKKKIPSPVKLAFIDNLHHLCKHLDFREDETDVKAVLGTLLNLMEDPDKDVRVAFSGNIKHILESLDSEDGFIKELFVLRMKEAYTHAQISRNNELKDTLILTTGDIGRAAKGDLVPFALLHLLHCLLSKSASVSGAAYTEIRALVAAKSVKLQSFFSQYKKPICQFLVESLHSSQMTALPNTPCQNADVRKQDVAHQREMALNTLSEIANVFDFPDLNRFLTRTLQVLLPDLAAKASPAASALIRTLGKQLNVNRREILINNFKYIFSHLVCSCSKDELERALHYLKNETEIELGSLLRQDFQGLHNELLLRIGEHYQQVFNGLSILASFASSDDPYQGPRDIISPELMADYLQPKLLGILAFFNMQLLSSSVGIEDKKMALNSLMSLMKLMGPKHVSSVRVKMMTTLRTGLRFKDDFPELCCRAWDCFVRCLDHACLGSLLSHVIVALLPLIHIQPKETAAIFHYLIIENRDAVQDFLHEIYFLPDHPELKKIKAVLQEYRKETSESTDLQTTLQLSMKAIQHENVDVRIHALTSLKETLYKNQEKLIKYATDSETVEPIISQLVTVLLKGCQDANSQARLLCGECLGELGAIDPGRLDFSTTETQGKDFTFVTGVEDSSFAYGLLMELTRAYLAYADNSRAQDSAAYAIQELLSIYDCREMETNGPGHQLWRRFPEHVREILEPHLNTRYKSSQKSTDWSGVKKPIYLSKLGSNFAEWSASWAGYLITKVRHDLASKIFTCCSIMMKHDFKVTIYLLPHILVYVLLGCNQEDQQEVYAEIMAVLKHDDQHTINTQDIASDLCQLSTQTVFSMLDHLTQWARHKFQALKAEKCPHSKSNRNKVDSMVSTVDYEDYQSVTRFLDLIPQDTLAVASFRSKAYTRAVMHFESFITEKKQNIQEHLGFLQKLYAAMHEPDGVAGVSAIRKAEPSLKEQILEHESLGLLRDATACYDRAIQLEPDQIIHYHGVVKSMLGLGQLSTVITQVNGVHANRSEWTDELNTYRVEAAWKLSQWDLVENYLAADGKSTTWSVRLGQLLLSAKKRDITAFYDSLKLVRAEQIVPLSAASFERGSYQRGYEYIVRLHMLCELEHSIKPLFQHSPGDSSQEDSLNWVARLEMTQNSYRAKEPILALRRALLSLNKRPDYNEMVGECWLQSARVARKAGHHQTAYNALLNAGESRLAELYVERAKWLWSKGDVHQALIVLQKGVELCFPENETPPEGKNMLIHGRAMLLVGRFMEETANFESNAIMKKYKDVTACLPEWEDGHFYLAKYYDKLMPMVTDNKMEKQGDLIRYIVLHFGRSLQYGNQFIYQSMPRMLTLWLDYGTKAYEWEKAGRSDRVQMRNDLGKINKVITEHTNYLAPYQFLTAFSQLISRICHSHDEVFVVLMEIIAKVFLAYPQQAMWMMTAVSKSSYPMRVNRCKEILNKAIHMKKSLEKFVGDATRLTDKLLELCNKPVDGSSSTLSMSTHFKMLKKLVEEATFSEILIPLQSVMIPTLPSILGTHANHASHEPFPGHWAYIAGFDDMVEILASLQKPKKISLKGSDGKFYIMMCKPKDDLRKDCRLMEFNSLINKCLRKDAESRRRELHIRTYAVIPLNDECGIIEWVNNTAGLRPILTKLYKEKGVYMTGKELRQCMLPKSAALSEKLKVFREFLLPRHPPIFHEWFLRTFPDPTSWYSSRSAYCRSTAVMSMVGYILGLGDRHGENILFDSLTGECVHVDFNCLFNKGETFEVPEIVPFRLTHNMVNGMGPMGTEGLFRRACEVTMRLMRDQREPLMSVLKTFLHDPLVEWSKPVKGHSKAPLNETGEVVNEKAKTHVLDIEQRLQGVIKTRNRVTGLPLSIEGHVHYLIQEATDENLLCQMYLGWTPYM
ATR, sequence (Q8WXE1 whole entry partner): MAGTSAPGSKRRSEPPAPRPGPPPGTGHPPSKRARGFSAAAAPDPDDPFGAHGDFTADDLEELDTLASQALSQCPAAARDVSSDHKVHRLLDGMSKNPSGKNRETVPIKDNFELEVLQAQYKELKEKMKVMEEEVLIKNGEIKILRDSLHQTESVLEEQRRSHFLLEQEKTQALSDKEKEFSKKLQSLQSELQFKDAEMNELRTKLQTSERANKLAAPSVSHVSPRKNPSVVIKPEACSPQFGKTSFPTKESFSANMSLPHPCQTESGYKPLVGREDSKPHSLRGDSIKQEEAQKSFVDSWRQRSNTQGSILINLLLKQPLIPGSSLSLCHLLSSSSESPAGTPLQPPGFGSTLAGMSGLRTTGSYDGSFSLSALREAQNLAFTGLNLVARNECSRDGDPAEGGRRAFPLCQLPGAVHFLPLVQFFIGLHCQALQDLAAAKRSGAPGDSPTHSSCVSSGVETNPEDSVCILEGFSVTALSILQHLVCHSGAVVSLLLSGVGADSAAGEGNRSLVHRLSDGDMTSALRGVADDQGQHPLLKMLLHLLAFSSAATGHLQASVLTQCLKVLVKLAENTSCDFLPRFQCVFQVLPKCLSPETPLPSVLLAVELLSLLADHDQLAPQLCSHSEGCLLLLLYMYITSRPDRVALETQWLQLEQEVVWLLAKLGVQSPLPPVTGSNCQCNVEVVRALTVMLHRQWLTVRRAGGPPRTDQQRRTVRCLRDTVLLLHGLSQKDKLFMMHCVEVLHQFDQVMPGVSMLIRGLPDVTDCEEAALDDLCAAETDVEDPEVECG

On to `Cn1cncc1-c1c(F)cncc1NC(=O)c1c(N)nn2cc(F)cnc12` [M1774], for which the “inhibition of ATR signaling” value on ATR was “potent and specific inhibitor of ATR signaling”.

Take `N.N.[Cl][Pt][Cl]` [cis-platinum]: the “effect on TP53-mutant HSCs” value in assay [1] is recorded as “significant expansion of TP53-mutant HSCs”.
